The values that follow come from PMC8746695, “Zinc-Chelating Compounds as Inhibitors of Human and Bacterial Zinc Metalloproteases” (Molecules, 2021).

In one assay the target is T1, aureolysin (ALN) (Staphylococcus aureus, UniProt P81177).
T1 construct: purchased BioCentrum Ltd. (Kraków, Poland)
Description: Inhibition of aureolysin (ALN), substrate McaRPPGFSAFK(Dnp)-OH. It is filed as biochemical. Here is the method:
(§1) McaPLGL(Dpa)AR-NH2 was used as a substrate for MMP-9 and MMP-14, while McaRPPGFSAFK(Dnp)-OH was used as substrate for ALN, PLN and TLN. The reaction velocities/initial rates (v) were determined at 37 °C, at an excitation wavelength of 320 nm and an emission wavelength of 405 nm with a slit width of 10 nm using either a Perkin Elmer LS 50 Luminescence spectrometer and the FL WinLab Software Package (Perkin Elmer) or a Clario Star microplate reader (CLARIOstar® BMG LABTECH).
(§2) The test compounds were dissolved in 100% DMSO giving a concentration of 10 mM. A fixed substrate concentration of 4.0 µM in a total volume of 100 µL 0.1 M Hepes pH 7.5, 10 mM CaCl2, 0.005% Brij-35 and 1.0% DMSO, were used in all assays, except for ALN where the substrate concentration was 5.0 µM. The fixed enzyme concentrations were as follows; 0.05 nM MMP-9, 1.0 nM MMP-14, 1.4 nM ALN, 0.5 nM PLN and 0.21 nM TLN. Time-dependent inhibitory experiments without and with 100 μM of testing compounds were performed as follows. Compounds were either pre-incubated with the proteases for 15, 30 and 45 min at room temperature and the enzymatic reaction was started by adding the substrate, or not pre-incubated, i.e., the reaction was started by adding the protease to the mixture of substrate and compound. Control tests without compound present were performed in the same way. The reaction was followed for 30 min at 37 °C.
(§3) Enzymes with and without inhibitor were pre-incubated for 30 min at room temperature, and initial rate assays were performed as described above. Assays were performed using a Clario Star microplate reader (CLARIOstar® BMG LABTECH). The IC50 values were calculated in Graph Pad Prism 5 using Equation (1):(1) vi/v0=1/(1+10^(pIC50−pI)) where vi is the enzyme activity in the presence of inhibitor, v0 the activity in the absence of inhibitor, pI = −log [Inhibitor] in M and pIC50 = −log IC50 in M. All experiments were performed in at least triplicate.

For the next assay, the target named is T2, thermolysin (TLN) (Bacillus thermoproteolyticus, UniProt P00800).
T2 construct: purchased Calbiochem (San Diego, CA, USA)
In words: Inhibition of thermolysin (TLN), substrate McaRPPGFSAFK(Dnp)-OH. In kind it is biochemical. Particulars: substrate McaRPPGFSAFK(Dnp)-OH 4 µM; 30 min pre-incubation at room temperature; calculated from IC50; read-out: Ki ± s.d. TLN. Here is the method:
as §1, §2, §3

T1 sequence (P81177 209-509): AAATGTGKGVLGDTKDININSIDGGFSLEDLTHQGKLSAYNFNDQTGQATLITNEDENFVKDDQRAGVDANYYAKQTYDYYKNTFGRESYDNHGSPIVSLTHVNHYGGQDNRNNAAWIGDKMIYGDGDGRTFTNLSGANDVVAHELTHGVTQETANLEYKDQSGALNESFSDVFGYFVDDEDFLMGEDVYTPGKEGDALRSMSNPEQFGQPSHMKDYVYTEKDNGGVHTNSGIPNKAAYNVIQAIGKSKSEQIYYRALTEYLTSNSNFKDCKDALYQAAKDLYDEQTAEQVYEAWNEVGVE
T2 sequence (P00800 233-548): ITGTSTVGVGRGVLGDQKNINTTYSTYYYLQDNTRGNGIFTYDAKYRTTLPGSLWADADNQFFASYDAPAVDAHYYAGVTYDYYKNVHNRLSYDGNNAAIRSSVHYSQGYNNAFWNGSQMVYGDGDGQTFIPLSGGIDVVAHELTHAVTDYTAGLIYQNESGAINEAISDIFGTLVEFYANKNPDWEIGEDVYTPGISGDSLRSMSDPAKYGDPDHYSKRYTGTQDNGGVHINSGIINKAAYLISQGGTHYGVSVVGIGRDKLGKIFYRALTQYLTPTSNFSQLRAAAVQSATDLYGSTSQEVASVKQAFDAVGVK

As for `c1ccc(CN(Cc2ccccn2)Cc2ccccn2)nc1` [TPA, tri(2-pyridinemethyl)amine, reference compound], the Ki at aureolysin (ALN) was 16 ± 1 µM; on thermolysin (TLN) it was 5.5 ± 0.9 µM.

The Ki is the equilibrium dissociation constant of an inhibitor or competing ligand from its target.
